Read-outs that look alike come from different tables or passages of the source.
Assays:
[1] = test system: HAP1 MTAP-intact cell line; assay: SDMA in-cell western assay, HAP1 MTAP-intact; settings: Homo sapiens
[2] = test system: HAP1 MTAP-deleted cell line; assay: SDMA in-cell western assay, HAP1 MTAP-deleted; settings: for IC50 / IC90: Homo sapiens; for Hap1 MTAP intact/deleted ratio: IC50 ratio between HAP1 MTAP-intact and HAP1 MTAP-deleted cell line
MTAP-deleted cell line = assay: viability assay for the MTAP-deleted cell line; assay type: cell-based; settings: Homo sapiens, HAP1, viability assay
[3] = HAP1, read-out: Hap1 MTAP intact IC50, SDMA in-cell western, HAP1 MTAP-intact cell line
[4] = HAP1, read-out: Hap1 MTAP deleted IC50, SDMA in-cell western, HAP1 MTAP-deleted cell line
[5] = HAP1, read-out: Hap1 MTAP deleted IC90, SDMA in-cell western, HAP1 MTAP-deleted cell line
[6] = HAP1, read-out: Hap1 MTAP intact IC50, SDMA in-cell western assay, HAP1 MTAP-intact cell line
[7] = HAP1, read-out: Hap1 MTAP deleted IC50, SDMA in-cell western assay, HAP1 MTAP-deleted cell line
[8] = HAP1, read-out: Hap1 MTAP deleted IC90, SDMA in-cell western assay, HAP1 MTAP-deleted cell line

SMILES | IC50 [1, 3] [nM] | IC50 [2, 4] [nM] | IC90 [2, 5] [nM] | IC50 [1, 6] [nM] | IC50 [2, 7] [nM] | IC90 [2, 8] [nM] | Hap1 MTAP intact/deleted ratio ([2]; SDMA in-cell western) | IC50 (MTAP-deleted cell line) [nM] | Hap1 MTAP intact/deleted ratio ([2]; SDMA in-cell western assay)
C[C@H]1CC[C@H](c2ccc3sc(C4CC(C)(C)N(C)C(C)(C)C4)nc3c2)N(C(=O)C(=O)Nc2ccn3ccnc3c2)C1 [Compound 67, N-(imidazo[1,2-a]pyridin-7-yl)-2-((2R,5S)-5-methyl-2-(2-(1,2,2,6,6-pentamethylpiperidin-4-yl)benzo[d]thiazol-5-yl)piperidin-1-yl)-2-oxoacetamide] | 5 to 50 | < 5 | < 75 | – | – | – | B (“B” indicates an IC50 ratio greater than or equal to 15 fold but lower than 30 fold) | < 100 | –
C[C@H]1CC[C@H](c2ccc3cn([C@@H]4CCN(C)C4)nc3c2)N(C(=O)C(=O)Nc2cncc3cn[nH]c23)C1 [Compound 141, 2-((2R,5S)-5-methyl-2-(2-((R)-1-methylpyrrolidin-3-yl)-2H-indazol-6-yl)piperidin-1-yl)-2-oxo-N-(1H-pyrazolo[4,3-c]pyridin-7-yl)acetamide] | > 50 | < 5 | < 75 | – | – | – | A (“A” indicates an IC50 ratio greater than or equal to 30 fold) | < 100 | –
C[C@H]1CC[C@H](c2ccc3sc([C@@H]4CCN(C)C4)nc3c2)N(C(=O)C(=O)Nc2cncc3cn[nH]c23)C1 (single isomer, unassigned) [Compound 2] | 5 to 50 | < 5 | < 75 | – | – | – | C (“C” indicates an IC50 ratio of less than 15 fold) | < 100 | –
CC[C@@H]1CC[C@@H](C)N(C(=O)C(=O)Nc2cnc(N)c3cn[nH]c23)C1 (racemic) [Compound 269, N-(4-Amino-1H-pyrazolo[4,3-c]pyridin-7-yl)-2-oxo-2-[rac-(2R,5R)-5-ethyl-2-methyl-1-piperidyl]acetamide] | – | – | – | > 50 | 5 to 50 | > 125 | – | 100 to 1000 | A (“A” indicates an IC50 ratio greater than or equal to 30 fold)
COc1cc([C@H]2CC[C@H](C)CN2C(=O)C(=O)Nc2cnc(N)c3cn[nH]c23)ccn1 [Compound 145, N-(4-amino-1H-pyrazolo[4,3-c]pyridin-7-yl)-2-oxo-2-[(2R,5S)-2-(2-methoxy-4-pyridyl)-5-methyl-1-piperidyl]acetamide] | 5 to 50 | < 5 | < 75 | – | – | – | B (“B” indicates an IC50 ratio greater than or equal to 15 fold but lower than 30 fold) | < 100 | –
C[C@H]1CC[C@H](c2cccc(OCCN(C)C)c2)N(C(=O)C(=O)Nc2cncc3cn[nH]c23)C1 (single isomer, unassigned) [Compound 78] | > 50 | < 5 | < 75 | – | – | – | B (“B” indicates an IC50 ratio greater than or equal to 15 fold but lower than 30 fold) | 100 to 1000 | –
C[C@H]1CC[C@H](c2ccc3sc([C@H]4CCN(C)C[C@@H]4C)nc3c2)N(C(=O)C(=O)Nc2ccn3ccnc3c2)C1 (relative stereo) [Compound 48, N-imidazo[1,2-a]pyridin-7-yl-2-oxo-2-[(2R,5S)-5-methyl-2-[2-[rel-(3R,4S)-1,3-dimethyl-4-piperidyl]-1,3-benzothiazol-5-yl]-1-piperidyl]acetamide] | > 50 | < 5 | < 75 | – | – | – | A (“A” indicates an IC50 ratio greater than or equal to 30 fold) | < 100 | –

Now from value to compound, other results behind:

IC50 [1, 3] [nM] | IC50 [2, 4] [nM] | IC90 [2, 5] [nM] | IC50 [1, 6] [nM] | IC50 [2, 7] [nM] | IC90 [2, 8] [nM] | SMILES | Hap1 MTAP intact/deleted ratio ([2]; SDMA in-cell western) | IC50 (MTAP-deleted cell line) [nM] | Hap1 MTAP intact/deleted ratio ([2]; SDMA in-cell western assay)
5 to 50 | < 5 | < 75 | – | – | – | C[C@@H]1CC[C@@H](c2ccc3cnccc3c2)N(C(=O)C(=O)Nc2cnc(N)c3cn[nH]c23)C1 (racemic) [Compound 22, rac-N-(4-amino-1H-pyrazolo[4,3-c]pyridin-7-yl)-2-((2R,5S)-2-(isoquinolin-6-yl)-5-methylpiperidin-1-yl)-2-oxoacetamide] | C (“C” indicates an IC50 ratio of less than 15 fold) | < 100 | –
– | – | – | > 50 | < 5 | < 75 | Cc1cc([C@H]2CC[C@H](C)CN2C(=O)C(=O)Nc2cnc(N)c3cn[nH]c23)cnc1C (racemic) [Compound 241, N-(4-Amino-1H-pyrazolo[4,3-c]pyridin-7-yl)-2-oxo-2-[rac-(2R,5S)-2-(5,6-dimethyl-3-pyridyl)-5-methyl-1-piperidyl]acetamide] | – | < 100 | A (“A” indicates an IC50 ratio greater than or equal to 30 fold)
– | – | – | 5 to 50 | < 5 | < 75 | C[C@@H]1CN(C(=O)C(=O)Nc2cnc(N)c3cn[nH]c23)[C@@H](c2ccccc2)CC1(F)F (racemic) [Compound 216, N-(4-Amino-1H-pyrazolo[4,3-c]pyridin-7-yl)-2-oxo-2-[rac-(2R,5R)-4,4-difluoro-5-methyl-2-phenyl-1-piperidyl]acetamide] | – | < 100 | C (“C” indicates an IC50 ratio of less than 15 fold)
– | – | – | > 50 | 5 to 50 | > 125 | C[C@H]1CC[C@H](C(C)(C)C)N(C(=O)C(=O)Nc2cnc(N)c3cn[nH]c23)C1 (racemic) [Compound 254, N-(4-Amino-1H-pyrazolo[4,3-c]pyridin-7-yl)-2-oxo-2-[rac-(2R,5S)-2-tert-butyl-5-methyl-1-piperidyl]acetamide] | – | 100 to 1000 | B (“B” indicates an IC50 ratio greater than or equal to 15 fold but lower than 30 fold)
– | – | – | 5 to 50 | < 5 | < 75 | C[C@H]1CC[C@H](c2ccc(CCN(C)C)cc2)N(C(=O)C(=O)Nc2cnc(N)c3cn[nH]c23)C1 (racemic) [Compound 263, N-(4-Amino-2H-pyrazolo[4,3-c]pyridin-7-yl)-2-oxo-2-[rac-(2R,5S)-2-[4-[2-(dimethylamino)ethyl]phenyl]-5-methyl-1-piperidyl]acetamide] | – | < 100 | C (“C” indicates an IC50 ratio of less than 15 fold)
> 50 | < 5 | < 75 | – | – | – | C[C@H]1CC[C@H](c2ccc3sc(CCN(C)C)nc3c2)N(C(=O)C(=O)Nc2ccn3ccnc3c2)C1 (single isomer, unassigned) [Compound 16, 2-(2-(2-(2-(dimethylamino)ethyl)benzo[d]thiazol-5-yl)-5-methylpiperidin-1-yl)-N-(imidazo[1,2-a]pyridin-7-yl)-2-oxoacetamide] | A (“A” indicates an IC50 ratio greater than or equal to 30 fold) | < 100 | –
– | – | – | > 50 | < 5 | < 75 | C[C@@H]1CCC[C@H](c2ccccc2)N1C(=O)C(=O)Nc1cnc(N)c2cn[nH]c12 (racemic) [Compound 270, N-(4-Amino-1H-pyrazolo[4,3-c]pyridin-7-yl)-2-oxo-2-[rac-(2R,6R)-2-methyl-6-phenyl-1-piperidyl]acetamide] | – | < 100 | A (“A” indicates an IC50 ratio greater than or equal to 30 fold)
> 50 | 5 to 50 | > 125 | – | – | – | C[C@H]1CC[C@H](c2ccc3sc(C4CCN(C)CC4)nc3c2)N(C(=O)C(=O)Nc2cnc3c(c2)C(=O)NC3)C1 [Compound 87, 2-oxo-N-(5-oxo-6,7-dihydropyrrolo[3,4-b]pyridin-3-yl)-2-[(2R,5S)-5-methyl-2-[2-(1-methyl-4-piperidyl)-1,3-benzothiazol-5-yl]-1-piperidyl]acetamide] | A (“A” indicates an IC50 ratio greater than or equal to 30 fold) | 100 to 1000 | –

Source: patent publication US20250163048A1 (Tango Therapeutics, Inc., priority 2022, published 2025)
